Data: patent US20030032813A1, “Rhodanine carboxylic acid derivatives for the treatment and prevention of metabolic bone disorders” (Angelika Esswein, Wolfgang Schaefer, and Konrad Honold, priority 1998, published 2003)

Columns and labels:
[1] = system: adenylate cyclase; experiment: assay for the capability of stimulating cyclic adenylate cyclase (cAMP formation); type: biochemical
From the text: Compounds of general formula (I) were investigated in a suitable assay for the capability of stimulating cyclic adenylate cyclase.

Compound | melting point | % cAMP (Test conc. 50 μM) [1]
CCC1=C(C=CC(C)=CC=CC=C2SC(=S)N(CC(=O)O)C2=O)C(CC)(CC)CCC1 | 192 to 195 °C | –
O=C(O)CN1C(=O)C(=CC=Cc2cc3ccccc3s2)SC1=S [Example 16, [5-(3-Benzo [b]thiophen-2-yl-allylidene)-4-oxo-2-thioxo-thiazoldin-3-yl]-acetic acid] | – | 8%
CC(C)(C)c1cc(C=C2SC(=S)N(CC(=O)O)C2=O)cc(C(C)(C)C)c1O [Example 25, [5-(3,5-Di-tert-butyl-4-hydroxy-benzylidene)-4-oxo-2-thioxo-thiazolidin-3-yl]-acetic acid] | 120 to 121 °C | 40%
CCOc1cc2cc(C=CC=C3SC(=S)N(CC(=O)OC)C3=O)sc2cc1OCC | 211 to 215 °C | –
CC(C=CC1=C(C)CCCC1(C)C)=C1SC(=S)N(CCC(=O)O)C1=O [Example 72, 3-5-[1-Methyl-3-(2,6,6-trimethyl-cyclohex-1-enyl)-allylidene]-4-oxo-2-thioxo-thiazolidin-3-yl-propionic acid] | – | 15%
CC(C)(C)c1cc(C=C2SC(=S)N(CC(=O)O)C2=O)ccc1O [Example 23, [5-(3-tert-Butyl-4-hydroxy-benzylidene)-4-oxo-2-thioxo-thiazolidin-3-yl]-acetic acid] | > 240 °C | 8%
O=C(O)CN1C(=O)C(=Cc2ccc(OCc3ccccc3)cc2)SC1=S | 205 to 206 °C | –
O=C(O)CCC(C(=O)O)N1C(=O)C(=Cc2cc3ccccc3s2)SC1=S (stereo not drawn) | 220 to 221 °C | –
CC(C=CC1=C(C)CCCC1(C)C)=CC=C1SC(=S)N(CC(=O)O)C1=O [Example 46, 5-(3-Methyl-5-(2,6,6trimethyl-cyclohex-1-enyl)-penta-2,4-dienyliden]-4-oxo-2-thioxo-thiazolidin-3-yl-acetic acid] | 153 to 155 °C | 30%
O=C(O)CN1C(=O)C(=CCCc2ccccc2)SC1=S | 108 to 111 °C | –
CC(C)(C)c1cc(C=C2SC(=S)N(CCC(=O)O)C2=O)cc(C(C)(C)C)c1O [Example 60, 3-[5-(3,5-Di-tert-butyl-4-hydroxy-benzylidene)-4-oxo-2-thioxo-thiazolidin-3-yl]-propionic acid] | 218 to 219 °C | 20%
CCCCN(CCCC)c1ccc(C=C2SC(=S)N(CC(=O)O)C2=O)cc1 | 186 to 188 °C | –
O=C(O)CCN1C(=O)C(=CC=Cc2cc3ccccc3s2)SC1=S | 246 to 248 °C | –
CC(C)(C)c1cc(C=C2SC(=S)N(C(Cc3ccccc3)C(=O)O)C2=O)cc(C(C)(C)C)c1O (stereo not drawn) [Example 3, 2-[5-(3,5-Di-tert-butyl-4-hydroxy-benzylidene)-4-oxo-2-thioxo-thiazolidin-3-yl]-3-phenyl-propionic acid] | 160 °C (dec.) | 8%
O=C(O)CN1C(=O)C(=Cc2ccc(OCc3ccccc3)c(OCc3ccccc3)c2)SC1=S | 187 to 188 °C | –
CC(C=CC1=C(C)CCCC1(C)C)=C1SC(=S)N(CC(=O)O)C1=O [Example 22, 5-[1-Methyl-3-[2,6,6-trimethyl-cyclohex-1-enyl)-allylidene]-4-oxo-2-thioxo-thiazolidin-3-yl-acetic acid] | 100 °C (dec.) | 10%
CC(C=CC1=C(C)CCCC1(C)C)=CC=CC(C)=CC=C1SC(=S)N(CC(=O)O)C1=O | 144 °C (dec.) | –
O=C(O)CN1C(=O)C(=Cc2cc(OCc3ccccc3)ccc2OCc2ccccc2)SC1=S | 196 to 198 °C | –
CC1=C(C=C2SC(=S)N(CCC(=O)O)C2=O)C(C)(C)CCC1 [Example 59, 3-(4-Oxo-2-thioxo-5-(2,6,6-trimetyl-cyclohex-1-enylmethylene)-thiazolidin-3-yl]-propionic acid] | – | 15%
O=C(O)CCN1C(=O)C(=Cc2ccc(OCc3ccccc3)cc2)SC1=S | 188 to 191 °C | –
O=C(O)CCN1C(=O)C(=Cc2cccc3ccccc23)SC1=S | 159 to 161 °C | –
O=C(O)CN1C(=O)C(=CC=CC=Cc2cc3ccccc3s2)SC1=S [Example 13, [5-(5-Benzo [b]thiophen-2-yl-penta-2,4-dienylidene)-4-oxo-2-thioxo-thiazolidin-3-yl]-acetic acid] | > 240 °C | 10%
CN1C(=O)C(=Cc2cc(C(C)(C)C)c(O)c(C(C)(C)C)c2)SC1=S | > 240 °C | –
O=C(O)CN1C(=O)C(=CC2CCN(C(=O)OCc3ccccc3)CC2)SC1=S | 114 to 115 °C | –
CC(C)(C)c1cc(C=C2SC(=S)N(C(Cc3c[nH]c4ccccc34)C(=O)O)C2=O)cc(C(C)(C)C)c1O (stereo not drawn) | 140 °C (dec.) | –
COc1cc(C)c2c(c1C=C1SC(=S)N(CC(=O)O)C1=O)Oc1c(c(C)c(O)c3c1C(O)OC3=O)OC2=O (stereo not drawn) | > 260 °C | –
O=C(O)CN1C(=O)C(=CC2=CC=C(OCc3ccccc3)C(O)(O)C2)SC1=S | 178 to 180 °C | –
CC(C(=O)O)N1C(=O)C(=Cc2ccc(OCc3ccccc3)cc2)SC1=S (stereo not drawn) | 125 to 128 °C | –
O=C(O)CC(C(=O)O)N1C(=O)C(=Cc2cc3ccccc3s2)SC1=S (stereo not drawn) | 240 °C (dec.) | –

Further lines, with some results ahead:

melting point | Compound | % cAMP (Test conc. 50 μM) [1]
268 to 270 °C | Cc1[nH]c2ccccc2c1C=C1SC(=S)N(CC(=O)O)C1=O | –
174 to 176 °C | O=C(O)CCN1C(=O)C(=Cc2ccc3c(c2)OCO3)SC1=S | –
> 260 °C | O=C(O)CN1C(=O)C(=Cc2ccc(O)c(C(=O)O)c2)SC1=S | –
172 to 173 °C | COc1ccc(COc2ccc(C=C3SC(=S)N(CC(=O)O)C3=O)cc2)cc1 | –
240 °C | COc1cc(C)c(C=C2SC(=S)N(CC(=O)O)C2=O)cc1C | –
200 °C (dec.) | CC(=O)Oc1cc(C=C2SC(=S)N(CC(=O)O)C2=O)cc(OC(C)=O)c1OC(C)=O | –
193 to 196 °C | COc1cccc(C=C2SC(=S)N(CC(=O)O)C2=O)c1 | –
> 240 °C | CC1C(C=C2SC(=S)N(CC(=O)O)C2=O)=CC=C(O)C1(C)O (stereo not drawn) | –
> 240 °C | CC(C)(C)c1cc(C=CC=C2SC(=S)N(CC(=O)O)C2=O)cc(C(C)(C)C)c1O | –
> 240 °C | CC(=O)Nc1ccc2sc(C=C3SC(=S)N(CC(=O)O)C3=O)cc2c1 | –
160 to 162 °C | CCCCCc1ccc(C=C2SC(=S)N(CC(=O)O)C2=O)cc1 | –
292 to 294 °C | O=C(O)CN1C(=O)C(=Cc2cc3ccccc3s2)SC1=S | –
230 to 232 °C | O=C(O)CN1C(=O)C(=Cc2ccc(O)cc2)SC1=S | –
184 to 188 °C | CC(=C1SC(=S)N(CC(=O)O)C1=O)c1cc(O)cc(O)c1 | –
240 °C (dec.) | CC(C)(C)c1cc(C=C2SC(=S)N(C(CC(=O)O)C(=O)O)C2=O)cc(C(C)(C)C)c1O (stereo not drawn) | –
191 to 193 °C | COc1cccc(COc2ccc(C=C3SC(=S)N(CC(=O)O)C3=O)cc2)c1 | –
206 to 207 °C | O=C(O)CN1C(=O)C(=Cc2ccc(OCc3ccc4c(c3)OCO4)cc2)SC1=S | –

melting point | Compound | % cAMP (Test conc. 50 μM) [1]
210 °C (dec.) | CCOc1c(C)cc(C=CC=C2SC(=S)N(CC(=O)O)C2=O)c(C)c1OCC | –
235 to 236 °C | COc1ccc(C=C2SC(=S)N(CC(=O)O)C2=O)cc1C | –
165 to 170 °C | COC(=O)CN1C(=O)C(=Cc2cc(C(C)(C)C)c(O)c(C(C)(C)C)c2)SC1=S | –
223 to 225 °C | CCN(CC)C(=O)CN1C(=O)C(=Cc2cc(C(C)(C)C)c(O)c(C(C)(C)C)c2)SC1=S | –
194 °C (dec.) | COc1cc(O)c(C=C2SC(=S)N(CC(=O)O)C2=O)c(OC)c1 | –
212 to 214 °C | O=C(O)CCCCCN1C(=O)C(=Cc2cc(O)c(O)c(O)c2)SC1=S | –
130 to 133 °C | O=C(O)CN1C(=O)C(=Cc2cc(OCc3ccccc3)ccc2O)SC1=S | –
246 to 247 °C | O=C(O)CN1C(=O)C(=Cc2ccc3c(c2)CCO3)SC1=S | –
263 °C (dec.) | O=C(O)CN1C(=O)C(=Cc2ccc(O)c(O)c2O)SC1=S | –
111 to 120 °C (dec.) | O=C(O)COc1ccc(CC=C2SC(=S)N(CC(=O)O)C2=O)cc1 | –
148 to 150 °C | CCCCCCOc1ccccc1C=C1SC(=S)N(CC(=O)O)C1=O | –
277 to 279 °C | Cc1cc(C=C2SC(=S)N(CC(=O)O)C2=O)cc(C)c1O | –
130 °C (dec.) | CC(C)(C)c1cc(C=C2SC(=S)N(C(CCC(=O)O)C(=O)O)C2=O)cc(C(C)(C)C)c1O (stereo not drawn) | –
193 to 253 °C | CC(=O)Oc1ccc(C=C2SC(=S)N(CC(=O)O)C2=O)cc1OC(C)=O | –
238 to 240 °C | COc1cc(C=C2SC(=S)N(CC(=O)O)C2=O)cc(OC)c1O | –
185 to 190 °C | CCOc1c(C)cc(C=C2SC(=S)N(CC(=O)O)C2=O)c(C)c1OCC | –
